Measurements as given in patent US11883423B2, “Nucleobase analogue derivatives and their applications” (BOARD OF REGENTS, THE UNIVERSITY OF TEXAS SYSTEM, priority 2014, dated 2024).

Experiments:
[1] = Octanol-water (PBS 7.4) partition coefficient; type: physicochemical; settings: in octanol under the test conditions
Method: The octanol-water partition coefficient of Gem-DHA was determined using a previously reported method with minor modifications (Hsu CH et al. Pharm Res. 2003, 20(6), 918-925). Briefly, octanol and PBS (7.4, 0.01 M) were mutually saturated for 24 h. Gem-DHA was dissolved in octanol (0.4 mg/ml, PBS-saturated) and 10 μl of the solution were withdrawn and diluted with methanol to measure Gem-DHA concentration using HPLC (C1) PBS was added to octanol at a volume ratio (VPBS/Voct) of 20:1 into a sealed vial under nitrogen, and the mixture was agitated vigorously at room temperature using a horizontal orbital shaker at 250 rpm (Max Q 2000, Thermo Scientific, Waltham, Mass.) while protected from light. After 5 h, the mixture was centrifuged (14,000 rpm, 15 min) and the concentration of Gem-DHA in the octanol layer was determined using HPLC (C2). Partition coefficient (Koctiwater) was calculated using the following equation: […]
The partition coefficient (octanol/PBS 7.4) of Gem-DHA was also measured using an indirect method by determining the concentration of the drug in octanol, before and after partitioning.

[2] = system: BxPC-3 cells; assay: Anti-proliferative activity, MTT assay, BxPC-3 cells; type: cell-based, human; settings: Bx-PC3 cells
Method: (§1) The anti-proliferative activity of Gem-DHA was evaluated in Panc-02, TC-1, Panc-1-Luc, and BxPC-3 cell lines. For Panc-02 and TC-1 cells, cells (1,500/well for Panc-02 and 3,000/well for TC-1) were seeded in 96-well plates and incubated at 37° C. and 5% CO2 overnight. The cells were then treated with various concentrations of Gem-DHA or other compounds for 24 h. For BxPC-3 and Panc-1-Luc cells, 3,000 and 1,000 cells/well were used, respectively, and cells were co-incubated with the Gem-DHA for 72 h. Cell viability was determined using an MTT assay as previously described (Naguib YW et al. Mol Pharm. 2014, 11(4), 1239-1249). Gemcitabine HCl was dissolved in cell culture medium, whereas Gem-DHA and DHA were dissolved in dimethylsulfoxide (DMSO). The values of IC50 were calculated using GraphPad Prism (GraphPad software, Inc., La Jolla, CA).

[3] = Biodistribution in TC-1 tumor-bearing mice; type: in vivo, C57BL/6 mice; settings: 90 min after i.v. 75 mg/kg
Method: A biodistribution study was carried out in TC-1 tumor-bearing C57BL/6 mice. When tumor diameters reached 7-8 mm (i.e., about 4 weeks after tumor cell injection), mice were injected via the tail vein with a Gem-DHA solution (75 mg/kg). Ninety minutes later, mice were euthanized to collect tumors and major organs (e.g., liver, kidneys, spleen, lung, heart, and pancreas). Tissues were homogenized, and Gem-DHA was extracted using ethyl acetate as mentioned above and analyzed using HPLC.

[4] = system: Panc-1-Luc human pancreatic cells; assay: Anti-proliferative activity, MTT assay, Panc-1-Luc cells; type: cell-based; settings: 72 h
Method: as §1

[5] = system: Panc-02 cells; assay: Anti-proliferative activity, MTT assay, Panc-02 cells; type: cell-based; settings: Mus musculus, Panc02, 24 h
Method: as §1

[6] = system: Panc-02 cells; assay: Apoptosis analysis, Annexin V staining and flow cytometry; type: cell-based, mouse; settings: 48 h
Method: Apoptosis analysis was carried out as previously reported (Zhu S et al. Biomaterials. 2013, 34(9), 2327-2339). Briefly, 100,000 Panc-02 cells were incubated in 24-well plates for 24 h at 37° C. and 5% CO2 and then co-incubated with various concentrations of Gem-DHA for 48 h. The cells were then harvested and stained with 0.1 ml of Guava Nexin reagent (Millipore Corporation, Billerica, Mass.) for 20 min at room temperature, protected from light. The stained cells were analyzed using a Millipore Guava easyCyte 8HT Flow Cytometry System. Control cells were left untreated.

CC/C=C\C/C=C\C/C=C\C/C=C\C/C=C\C/C=C\CCC(=O)Nc1ccn(C2OC(CO)C(O)C2(F)F)c(=O)n1 (stereo not drawn) [Gem-DHA, 4-(N)-Docosahexaenoyl Difluorodeoxycytidine]
Time stable in octanol [1]: at least 18 h | Fold by which IC50 is smaller than that of gemcitabine HCl [2]: 1.8×10^5 fold | Distribution among organs [3]: high percent of the injected Gem-DHA was in mouse pancreas | Inhibition of tumor cell growth (comparison) [4]: more effective than gemcitabine alone or the physical mixture of gemcitabine and DHA | IC50 [5]: 34 pM | Pro-apoptotic activity, Annexin V staining [6]: concentration-dependent apoptosis
